Reference: patent US20250091992A1, “NOVEL COMPOUNDS AND USES THEREOF” (KANNA HEALTH LIMITED, priority 2021, published 2025)
Read-outs that look alike come from different tables or passages of the source.

How the values were obtained:
[1] = system: TNF-α; test: LPS-induced cytokine release from human PBMCs: TNF-α; format: cell-based
Description: (§1) Data were tested for normality.

[2] = system: IL-1β; test: LPS-induced cytokine release from human PBMCs: IL-1β; format: cell-based; conditions: high concentration (10.0 μM)
Description: as §1

[3] = system: IL-10; test: LPS-induced cytokine release from human PBMCs: IL-10; format: cell-based; conditions: high concentration (10.0 μM)
Description: as §1

[4] = target: T1, human serotonin transporter (Homo sapiens, UniProt P31645); conditions: for inhibition: 10 µM;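 for all read-outs here: Read-out: uptake of tritium-labelled serotonin, measured by scintillation counting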
Description: (§6) Following incubation, [^3H] serotonin uptake was quantified by a standard scintillation counting method.

[5] = Hepatocyte stability study; format: in vitro ADME; conditions: human hepatocytes
Description: The compounds were added at a concentration of 1 μM to human hepatocytes (0.5×10^6 cells/ml in Williams E media supplemented with 2 mM L-glutamine and 25 mM HEPES) and incubated for 0, 5, 10, 20, 40 and 60 min at 37° C. Five replicates were performed for each compound.

[6] = target: human recombinant PDE-4B1 (Homo sapiens, UniProt Q07343); test: PDE4-B1 assay (Compounds of Formula I), SPA; format: biochemical; conditions: for IC50: 4-parameter logistical fit, two technical replicates
Description: (§2) 20 mins after addition of human recombinant PDE-4B1 (1.2 IEU) or PDE-4D2 (1.5 IEU), SPA beads were added and incubated at 22° C. for a further 30 mins. [^3H]5′AMP was quantified by a standard scintillation counting method.

[7] = target: human recombinant PDE-4D2 (Homo sapiens, UniProt Q08499); test: PDE4-D2 assay (Compounds of Formula I), SPA; format: biochemical; conditions: for IC50: 4-parameter logistical fit, two technical replicates
Description: as §2

[8] = system: time spent immobile; test: Forced swim test; format: in vivo, male C57Bl/6J mice; conditions: 60 minutes before test; for Time spent immobile during forced swim test, Low dose (0.3 mg/kg): 0.3 mg/kg i.p.; for Time spent immobile during forced swim test, High dose (3 mg/kg): 3 mg/kg i.p.
Description: The forced swim test is a standard model for examination of potential antidepressant-like activity and represents futility, despair, and motivation behavioural domains.
(§3) Male C57Bl/6J mice (3-4 months), were assigned to one of three groups receiving either test compound (0.3, 3.0 mg/kg) or vehicle (0.5% (w/v) methyl cellulose) via the i.p. route, 60 minutes before experimental examination.
(§4) The test compounds used were compound identification numbers 6, 13 and 21 from Table 1.
The duration of time the mouse spent immobile during the forced swim test was measured.
(§5) Data were tested for normality and outliers were removed.

[9] = system: time spent in centre of open field; test: Open field test; format: in vivo, male C57Bl/6J mice; conditions: for Time spent in centre during open field test, Low dose (0.3 mg/kg): 0.3 mg/kg i.p.; for Time spent in centre during open field test, Low dose (0.3 mg/kg) / Time spent in centre during open field test, High dose (3 mg/kg): 60 minutes before test; for Time spent in centre during open field test, High dose (3 mg/kg): 3 mg/kg i.p.
Description: The open field test is routinely applied in order to assess a compounds ability to affect anxiety, and as such as positive result may be indicative of a compounds anxiolytic activity (Kraeuter et al., 2019).
as §3, §4
The duration of time the mouse spent in central, periphery and corners were quantified, with duration in the central area depicted as the primary outcome measure.
as §5

[10] = in vivo; set-up: species or system male C57Bl/6J mice; conditions: male, C57Bl/6J, mouse, ip, 30 mg/kg
Description: Groups of 18 male C57Bl/6J mice (weighing between 22.7 and 27.3 g) received a single administration of test compound (30 mg/kg; i.p.) in methylcellulose (0.5% w/v) at a nominal concentration of […].
Three mice from each dose group were subject to cardiac puncture under general anesthesia at 0.25, 0.50, 1.00, 1.50, 2.00 and 4.00 hours post-dose and plasma samples generated for application of standard LC-MS/MS bioanalytical methods.
Quantitation of compound concentration was derived from reference calibration data. Pharmacokinetic data were derived from serial plasma concentrations.

[11] = target: T1, human serotonin transporter; test: cell-based
Description: as §6

[12] = naturally occurring; cited from earlier work
[13] = target: PDE-4B (Homo sapiens, UniProt Q07343); conditions: Harvey et al., 2011; cited from earlier work
[14] = target: 5-HT transporter (Homo sapiens, UniProt P31645); conditions: Harvey et al., 2011; cited from earlier work
[15] = medium (1.0 μM) and high (10.0 μM) concentration

Sequence of human recombinant PDE-4D2 (Q08499 303-809): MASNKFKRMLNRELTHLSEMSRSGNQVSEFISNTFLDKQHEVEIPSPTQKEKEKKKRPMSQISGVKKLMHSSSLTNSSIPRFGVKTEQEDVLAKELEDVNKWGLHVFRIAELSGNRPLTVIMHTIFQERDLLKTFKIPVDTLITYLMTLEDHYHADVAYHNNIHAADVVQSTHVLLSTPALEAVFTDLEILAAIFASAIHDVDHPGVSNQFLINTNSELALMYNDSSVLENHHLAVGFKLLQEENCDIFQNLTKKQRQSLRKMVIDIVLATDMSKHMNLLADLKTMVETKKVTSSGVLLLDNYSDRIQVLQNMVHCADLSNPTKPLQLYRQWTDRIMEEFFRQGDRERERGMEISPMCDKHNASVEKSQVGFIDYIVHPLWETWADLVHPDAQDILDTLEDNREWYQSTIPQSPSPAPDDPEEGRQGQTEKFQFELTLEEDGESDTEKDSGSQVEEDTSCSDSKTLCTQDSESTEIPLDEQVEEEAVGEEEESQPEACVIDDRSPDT
Sequence of human recombinant PDE-4B1 (Q07343 whole entry): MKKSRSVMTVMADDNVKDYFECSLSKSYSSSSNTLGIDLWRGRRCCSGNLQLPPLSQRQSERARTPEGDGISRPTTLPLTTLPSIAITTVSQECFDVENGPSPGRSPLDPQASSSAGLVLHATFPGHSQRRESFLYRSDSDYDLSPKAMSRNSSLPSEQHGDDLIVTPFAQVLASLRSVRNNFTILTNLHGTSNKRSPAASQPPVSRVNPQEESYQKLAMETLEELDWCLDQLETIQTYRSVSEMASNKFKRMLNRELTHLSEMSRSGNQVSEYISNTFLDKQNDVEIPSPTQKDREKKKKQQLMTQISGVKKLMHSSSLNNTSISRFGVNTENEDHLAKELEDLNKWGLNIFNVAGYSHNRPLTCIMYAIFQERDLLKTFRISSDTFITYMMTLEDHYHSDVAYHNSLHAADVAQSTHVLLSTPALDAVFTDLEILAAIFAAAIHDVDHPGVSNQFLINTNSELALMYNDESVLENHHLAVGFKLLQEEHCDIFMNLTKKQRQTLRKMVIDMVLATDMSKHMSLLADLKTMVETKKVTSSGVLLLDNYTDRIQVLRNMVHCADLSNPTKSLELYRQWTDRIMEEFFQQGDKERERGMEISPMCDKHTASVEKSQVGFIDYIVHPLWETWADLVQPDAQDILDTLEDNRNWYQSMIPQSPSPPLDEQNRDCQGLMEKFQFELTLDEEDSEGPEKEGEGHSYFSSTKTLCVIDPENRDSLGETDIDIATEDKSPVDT
T1 sequence (P31645 whole entry): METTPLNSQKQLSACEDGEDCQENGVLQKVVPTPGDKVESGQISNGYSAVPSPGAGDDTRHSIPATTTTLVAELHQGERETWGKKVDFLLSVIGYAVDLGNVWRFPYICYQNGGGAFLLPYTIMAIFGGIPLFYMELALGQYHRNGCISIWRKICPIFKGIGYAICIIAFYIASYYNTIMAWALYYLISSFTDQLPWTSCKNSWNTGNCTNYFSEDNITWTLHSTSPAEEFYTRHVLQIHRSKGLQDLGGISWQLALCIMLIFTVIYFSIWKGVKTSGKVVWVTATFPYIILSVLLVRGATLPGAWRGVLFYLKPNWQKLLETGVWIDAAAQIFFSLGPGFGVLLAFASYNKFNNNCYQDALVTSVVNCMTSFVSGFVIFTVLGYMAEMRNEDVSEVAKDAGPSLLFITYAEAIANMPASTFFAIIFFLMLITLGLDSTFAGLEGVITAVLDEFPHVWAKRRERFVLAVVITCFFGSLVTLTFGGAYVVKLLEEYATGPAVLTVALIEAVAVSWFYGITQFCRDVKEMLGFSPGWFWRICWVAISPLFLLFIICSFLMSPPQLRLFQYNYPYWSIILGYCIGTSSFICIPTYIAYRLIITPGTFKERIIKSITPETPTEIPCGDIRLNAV
Sequence of PDE-4B (Q07343 whole entry, species assumed): as the sequence (Q07343 whole entry) above
Sequence of 5-HT transporter (P31645 whole entry, species assumed): as the sequence (P31645 whole entry) above

| Structure (SMILES) | IC50 [4] | AUC(0-inf) [10] | Cmax [10] | Tmax [10] | half-life [10] | IC50 [11] | IC50 [6] | IC50 [7] | further results |
| --- | --- | --- | --- | --- | --- | --- | --- | --- | --- |
| COc1ccc([C@@]23CCC(=O)C[C@@H]2N(C)CC3)cc1OCC1CC1 [Compound 1] | – | – | – | – | – | – | – | – | Inhibition of TNF-α release compared to vehicle (significance) [1, 15]: inhibited TNF-α release at a statistically significant level; Inhibition of IL-β (significance) [2]: statistically significantly inhibited; Inhibition of IL-10 (significance) [3]: statistically significantly inhibited |
| CCCCOc1cc([C@@]23CCC(=O)C[C@@H]2N(C)CC3)ccc1OC [Compound 2] | 0.03 µM | – | – | – | – | – | – | – | Inhibition of TNF-α release compared to vehicle (significance) [1, 15]: inhibited TNF-α release at a statistically significant level; Inhibition of IL-10 (significance) [3]: statistically significantly inhibited |
| [2H]C([2H])([2H])Oc1cc([C@@]23CCC(=O)C[C@@H]2N(C)CC3)ccc1OC [Compound 5] | – | – | – | – | – | – | – | – | half-life compared with non-deuterated mesembrine [5]: shorter half-life; hepatocyte CLint at 1 μM ([5]; 1 μM, 37° C., read-out: Qualified Clint): 21.1 µL/min/1e6 cells; half-life at 1 μM ([5]; 1 μM, 37° C., read-out: Qualified t1/2): 65.8 min; inhibition at 30 µM ([6]; 30 μM, relative to Ro 20-1724): 88%; inhibition [4]: 98%; inhibition at 30 µM ([7]; 30 μM, relative to Ro 20-1724): 94% |
| CCOc1cc([C@@]23CCC(=O)C[C@@H]2N(C)CC3)ccc1OC [Compound 6] | 0.002 µM | 1960 ng·h/mL | 2610 ng/mL | 15 min | 33.6 min | – | – | – | Time spent immobile during forced swim test, Low dose (0.3 mg/kg) [8]: 116 s; Time spent immobile during forced swim test, High dose (3 mg/kg) [8]: 88 s; Time spent in centre during open field test, Low dose (0.3 mg/kg) [9]: 9.4 s; Time spent in centre during open field test, High dose (3 mg/kg) [9]: 8.6 s |
| COc1ccc([C@@]23CCC(=O)C[C@@H]2N(C)CC3)cc1OC1CCCC1 [Compound 11] | 0.8 µM | 1040 ng·h/mL | 796 ng/mL | 15 min | 56.4 min | – | – | – | Inhibition of TNF-α release compared to vehicle (significance) ([1]; all concentrations): inhibit TNF-α release at a statistically significant level; Inhibition of IL-β (significance) [2]: statistically significantly inhibited; Inhibition of IL-10 (significance) [3]: statistically significantly inhibited |
| C=CCOc1cc([C@@]23CCC(=O)C[C@@H]2N(C)CC3)ccc1OC [Compound 13] | 0.02 µM | 2100 ng·h/mL | 2330 ng/mL | 15 min | 40.2 min | – | – | – | Time spent immobile during forced swim test, Low dose (0.3 mg/kg) [8]: 119 s; Time spent immobile during forced swim test, High dose (3 mg/kg) [8]: 138 s; Time spent in centre during open field test, Low dose (0.3 mg/kg) [9]: 10.6 s; Time spent in centre during open field test, High dose (3 mg/kg) [9]: 8.8 s; inhibition [4]: 100% |
| C#CCOc1cc([C@@]23CCC(=O)C[C@@H]2N(C)CC3)ccc1OC [Compound 15] | – | – | – | – | – | < 3 µM | < 3 µM | < 3 µM | – |
| CCOc1ccc([C@@]23CCC(=O)C[C@@H]2N(C)CC3)cc1OCC [Compound 21] | 0.03 µM | 1830 ng·h/mL | 2430 ng/mL | 15 min | 34.2 min | – | – | – | Time spent immobile during forced swim test, Low dose (0.3 mg/kg) [8]: 105 s; Time spent immobile during forced swim test, High dose (3 mg/kg) [8]: 118 s; Time spent in centre during open field test, Low dose (0.3 mg/kg) [9]: 13.7 s; Time spent in centre during open field test, High dose (3 mg/kg) [9]: 9.8 s; Time spent in the centre compared to vehicle (significance) ([9]; low dose of 0.3 mg/kg): statistically significant increase; inhibition [4]: 91% |
| CCOc1ccc([C@@]23CCC(=O)C[C@@H]2N(C)CC3)cc1OC1CCCC1 [Compound 27] | 0.4 µM | 1400 ng·h/mL | 831 ng/mL | 15 min | 58.2 min | – | – | – | Inhibition of TNF-α release compared to vehicle (significance) [1, 15]: inhibited TNF-α release at a statistically significant level; inhibition [4]: 96% |
| COc1ccc([C@]23CCC(=O)C=C2N(C)CC3)cc1OC [Compound 40] | – | – | – | – | – | > 3 µM | > 3 µM | > 3 µM | – |
| COc1ccc([C@@]23CCC(=O)C=C2N(C)CC3)cc1OC [Compound 41] | – | – | – | – | – | < 3 µM | > 3 µM | > 3 µM | – |
| COc1ccc([C@@]23CCC(=O)C=C2N(C)CC3)cc1OC1CCCC1 [Compound 42] | – | – | – | – | – | > 3 µM | > 3 µM | < 3 µM | – |
| C=CCOc1cc([C@@]23CCC(=O)C=C2N(C)CC3)ccc1OC [Compound 43] | – | – | – | – | – | > 3 µM | > 3 µM | > 3 µM | – |
| CCOc1ccc(C23C=CC(=O)CC2N(C)CC3)cc1OCC (centres unmarked) [Compound 44] | – | – | – | – | – | > 3 µM | < 3 µM | < 3 µM | – |
| COc1ccc([C@@]23CCC(=O)C[C@@H]2N(C)CC3)cc1OC [Mesembrine, mesembrine, reference compound] | – | – | – | – | – | – | – | – | Qualified Clint ([5]; 1 μM, 37° C.): 16.3 μl/min/10^6 cells; Qualified t1/2 ([5]; 1 μM, 37° C.): 84.8; solubility in water [12]: scarcely soluble in water |
| COc1ccc([C@@]23C=C[C@@H](O)C[C@@H]2N(C)CC3)cc1OC [mesembrenol] | – | – | – | – | – | – | – | – | activity against PDE-4B [13]: potently active; activity in 5-HT transporter binding assay [14]: potently active |
